In patent US10875874B2, “Ginkgolide B derivative and preparation method and use thereof” (Chengdu Baiyu Ginkgolide Pharmaceuticals Co., Ltd., priority 2015, dated 2020):
Values after ≈ are worked out from the molar mass of the structure shown. Marks after values point to notes of the source that are not given here.

What was measured:
[1] = Weekly food intake of SHR rats; assay type: in vivo, rat
Outline: (§1)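 Male and female SHR rats (200-250 g, 8/group) dosed intragastrically once daily for 8 weeks with test compounds at 60 or 120 mg/kg/d or captopril 27 mg/kg; Wistar and SHR controls received distilled water. Body weight and food intake observed during treatment.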

[2] = Weekly body weight of SHR rats; assay type: in vivo, rat
Outline: as §1

[3] = system: spontaneously hypertensive rats (SHR); test: Caudal artery systolic pressure of spontaneously hypertensive rats, 8 weeks of continuous medication; assay type: in vivo, rat; details: x ± s, n = 8
Outline: (§2)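 SHR rats of both sexes (200–250 g, 8/group) dosed intragastrically with 60 or 120 mg/kg/d, or captopril 27 mg/kg, once daily for 8 weeks; Wistar rats and vehicle SHR served as controls. Tail-cuff systolic pressure taken as the mean of 3 readings, measured before dosing and 30–120 min after the first dose, or 30 min post-dose on days 1–56 for chronic treatment.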

[4] = Water solubility test; details: purified water, thermodynamic from solid
Procedure: Measuring method: samples are ground to obtain fine powder, target compounds are quantitatively weighed, the weighed compounds are added into purified water, and the solubility of the compounds is investigated by ultrasonics.

[5] = system: spontaneously hypertensive rats (SHR); test: Caudal artery systolic pressure of spontaneously hypertensive rats, single administration; assay type: in vivo, rat; details: x ± s, n = 8
Outline: as §2

[6] = 60 mg/kg/d intragastric, week 0
[7] = 60 mg/kg/d intragastric, week 1
[8] = 60 mg/kg/d intragastric, week 2
[9] = 60 mg/kg/d intragastric, week 3
[10] = 60 mg/kg/d intragastric, week 4
[11] = 60 mg/kg/d intragastric, week 5
[12] = 60 mg/kg/d intragastric, week 6
[13] = 60 mg/kg/d intragastric, week 7
[14] = 60 mg/kg/d intragastric, week 8
[15] = 120 mg/kg/d intragastric, week 0
[16] = 120 mg/kg/d intragastric, week 1
[17] = 120 mg/kg/d intragastric, week 2
[18] = 120 mg/kg/d intragastric, week 3
[19] = 120 mg/kg/d intragastric, week 4
[20] = 120 mg/kg/d intragastric, week 5
[21] = 120 mg/kg/d intragastric, week 6
[22] = 120 mg/kg/d intragastric, week 7
[23] = 120 mg/kg/d intragastric, week 8

**Q.** Which “Average dairy food intake” value [1, 6] does the source give for `CCCCC(OC(C)=O)c1ccccc1C(=O)O[C@H]1C(=O)O[C@H]2O[C@]34C(=O)OC5C[C@@H](C(C)(C)C)C21[C@@]53[C@@H](O)[C@@H]1OC(=O)[C@@H](C)[C@@]14O` (some centres unmarked) [BD] here?
**A.** Its value is 18.7 g/day.

**Q.** What about the “Average dairy food intake” value [1, 7] of the same molecule?
**A.** The value was 19.0^▴ g/d.

**Q.** What about the “Average dairy food intake” value [1, 8] of the same molecule?
**A.** Its value is 19.4^▴ g/d.

**Q.** What about the “Average dairy food intake” value [1, 9] of the same molecule?
**A.** The value was 19.8^▴ g/d.

**Q.** And the “Average dairy food intake” value [1, 10]?
**A.** Its value is 20.0^▴▴ g/d.

**Q.** What about the “Average dairy food intake” value [1, 11] of the same molecule?
**A.** Its value is 21.3^▴▴ g/d.

**Q.** What about the “Average dairy food intake” value [1, 12] of the same molecule?
**A.** Its value is 22.6^▴▴ g/d.

**Q.** What about the “Average dairy food intake” value [1, 13] of the same molecule?
**A.** Its value is 24.3^▴▴ g/d.

**Q.** What about the “Average dairy food intake” value [1, 14] of the same molecule?
**A.** The value was 25.0^▴▴ g/d.

**Q.** And the “Average dairy food intake” value [1, 15]?
**A.** Its value is 18.3 g/day.

**Q.** And the “Average dairy food intake” value [1, 16]?
**A.** Its value is 20.1^▴ g/d.

**Q.** And the “Average dairy food intake” value [1, 17]?
**A.** The value was 20.6^▴▴ g/d.

**Q.** What about the “Average dairy food intake” value [1, 18] of the same molecule?
**A.** Its value is 21.0^▴▴ g/d.

**Q.** What about the “Average dairy food intake” value [1, 19] of the same molecule?
**A.** The value was 21.5^▴▴ g/d.

**Q.** What about the “Average dairy food intake” value [1, 20] of the same molecule?
**A.** The value was 22.8^▴▴ g/d.

**Q.** And the “Average dairy food intake” value [1, 21]?
**A.** The value was 23.9^▴▴ g/d.

**Q.** And the “Average dairy food intake” value [1, 22]?
**A.** The value was 25.4^▴▴ g/d.

**Q.** And the “Average dairy food intake” value [1, 23]?
**A.** The value was 26.9^▴▴ g/d.

**Q.** What about the Body weight [2, 6] of the same molecule?
**A.** The Body weight was 229.2 g.

**Q.** And the Body weight [2, 7]?
**A.** Its Body weight is 234.5 g.

**Q.** What about the Body weight [2, 8] of the same molecule?
**A.** The Body weight was 247.1^▴▴ g.

**Q.** What about the Body weight [2, 9] of the same molecule?
**A.** The Body weight was 252.2 g.

**Q.** And the Body weight [2, 10]?
**A.** Its Body weight is 257.2 g.

**Q.** And the Body weight [2, 11]?
**A.** The Body weight was 262.4 g.

**Q.** And the Body weight [2, 12]?
**A.** Its Body weight is 270.4^▴ g.

**Q.** And the Body weight [2, 13]?
**A.** Its Body weight is 280.2^▴▴ g.

**Q.** And the Body weight [2, 14]?
**A.** The Body weight was 290.5^▴▴ g.

**Q.** What about the Body weight [2, 15] of the same molecule?
**A.** The Body weight was 230.9 g.

**Q.** And the Body weight [2, 16]?
**A.** The Body weight was 252.0^▴▴ g.

**Q.** And the Body weight [2, 17]?
**A.** The Body weight was 257.5^▴▴ g.

**Q.** What about the Body weight [2, 18] of the same molecule?
**A.** Its Body weight is 263.9^▴▴ g.

**Q.** And the Body weight [2, 19]?
**A.** The Body weight was 270.8^▴▴ g.

**Q.** What about the Body weight [2, 20] of the same molecule?
**A.** The Body weight was 281.2^▴▴ g.

**Q.** What about the Body weight [2, 21] of the same molecule?
**A.** Its Body weight is 291.0^▴▴ g.

**Q.** What about the Body weight [2, 22] of the same molecule?
**A.** The Body weight was 304.7^▴▴ g.

**Q.** And the Body weight [2, 23]?
**A.** Its Body weight is 321.7^▴▴ g.

**Q.** And the Systolic pressure ([3]; 60 mg/kg/d intragastric continuous, 1 d, 30 min after administration)?
**A.** The Systolic pressure was 156.20 ± 13.41 mmHg.

**Q.** What about the Systolic pressure ([3]; 60 mg/kg/d intragastric continuous, 7 d, 30 min after administration) of the same molecule?
**A.** Its Systolic pressure is 152.95 ± 11.03 mmHg.

**Q.** What about the Systolic pressure ([3]; 60 mg/kg/d intragastric continuous, 13 d, 30 min after administration) of the same molecule?
**A.** Its Systolic pressure is 155.74 ± 15.25 mmHg.

**Q.** What about the Systolic pressure ([3]; 60 mg/kg/d intragastric continuous, 19 d, 30 min after administration) of the same molecule?
**A.** Its Systolic pressure is 153.01 ± 14.04 mmHg.

**Q.** And the Systolic pressure ([3]; 60 mg/kg/d intragastric continuous, 25 d, 30 min after administration)?
**A.** The Systolic pressure was 152.30 ± 10.45 mmHg.

**Q.** What about the Systolic pressure ([3]; 60 mg/kg/d intragastric continuous, 35 d, 30 min after administration) of the same molecule?
**A.** The Systolic pressure was 157.03 ± 14.08 mmHg.

**Q.** What about the Systolic pressure ([3]; 60 mg/kg/d intragastric continuous, 49 d, 30 min after administration) of the same molecule?
**A.** The Systolic pressure was 153.96 ± 14.74 mmHg.

**Q.** What about the Systolic pressure ([3]; 60 mg/kg/d intragastric continuous, 56 d, 30 min after administration) of the same molecule?
**A.** The Systolic pressure was 154.57 ± 12.48 mmHg.

**Q.** And the Systolic pressure ([3]; 60 mg/kg/d intragastric continuous, before administration)?
**A.** The Systolic pressure was 163.64 ± 14.02 mmHg.

**Q.** What about the Systolic pressure ([3]; 120 mg/kg/d intragastric continuous, 1 d, 30 min after administration) of the same molecule?
**A.** Its Systolic pressure is 150.49 ± 15.34 mmHg.

**Q.** And the Systolic pressure ([3]; 120 mg/kg/d intragastric continuous, 7 d, 30 min after administration)?
**A.** The Systolic pressure was 152.64 ± 11.45 mmHg.

**Q.** What about the Systolic pressure ([3]; 120 mg/kg/d intragastric continuous, 13 d, 30 min after administration) of the same molecule?
**A.** Its Systolic pressure is 147.33 ± 13.42 mmHg.

**Q.** And the Systolic pressure ([3]; 120 mg/kg/d intragastric continuous, 19 d, 30 min after administration)?
**A.** The Systolic pressure was 145.49 ± 12.98 mmHg.

**Q.** What about the Systolic pressure ([3]; 120 mg/kg/d intragastric continuous, 25 d, 30 min after administration) of the same molecule?
**A.** Its Systolic pressure is 147.66 ± 14.02 mmHg.

**Q.** And the Systolic pressure ([3]; 120 mg/kg/d intragastric continuous, 35 d, 30 min after administration)?
**A.** Its Systolic pressure is 145.61 ± 9.47 mmHg.

**Q.** And the Systolic pressure ([3]; 120 mg/kg/d intragastric continuous, 49 d, 30 min after administration)?
**A.** Its Systolic pressure is 148.62 ± 12.04 mmHg.

**Q.** What about the Systolic pressure ([3]; 120 mg/kg/d intragastric continuous, 56 d, 30 min after administration) of the same molecule?
**A.** Its Systolic pressure is 142.15 ± 13.14 mmHg.

**Q.** And the Systolic pressure ([3]; 120 mg/kg/d intragastric continuous, before administration)?
**A.** The Systolic pressure was 164.57 ± 13.25 mmHg.

**Q.** And the solubility [4]?
**A.** The solubility was 250 µg/mL (≈ 381 µM).

**Q.** What about the Systolic pressure ([5]; 60 mg/kg intragastric single administration, 30 min) of the same molecule?
**A.** The Systolic pressure was 157.74 ± 9.28 mmHg.

**Q.** And the Systolic pressure ([5]; 60 mg/kg intragastric single administration, 60 min)?
**A.** The Systolic pressure was 152.67 ± 13.52 mmHg.

**Q.** And the Systolic pressure ([5]; 60 mg/kg intragastric single administration, 90 min)?
**A.** Its Systolic pressure is 151.60 ± 12.04 mmHg.

**Q.** And the Systolic pressure ([5]; 60 mg/kg intragastric single administration, 120 min)?
**A.** The Systolic pressure was 155.68 ± 10.15 mmHg.

**Q.** And the Systolic pressure ([5]; 60 mg/kg intragastric single administration, before administration)?
**A.** The Systolic pressure was 163.64 ± 14.02 mmHg.

**Q.** What about the Systolic pressure ([5]; 120 mg/kg intragastric single administration, 30 min) of the same molecule?
**A.** The Systolic pressure was 148.47 ± 10.87 mmHg.

**Q.** And the Systolic pressure ([5]; 120 mg/kg intragastric single administration, 60 min)?
**A.** Its Systolic pressure is 151.75 ± 10.68 mmHg.

**Q.** And the Systolic pressure ([5]; 120 mg/kg intragastric single administration, 90 min)?
**A.** Its Systolic pressure is 157.25 ± 14.38 mmHg.

**Q.** And the Systolic pressure ([5]; 120 mg/kg intragastric single administration, 120 min)?
**A.** The Systolic pressure was 160.49 ± 14.76 mmHg.

**Q.** And the Systolic pressure ([5]; 120 mg/kg intragastric single administration, before administration)?
**A.** Its Systolic pressure is 164.57 ± 13.25 mmHg.
